The data set is described as follows: Randomized crossover pharmacokinetics study of two Sytrinol formulations, single oral dose, serum tangeretin and nobiletin by LC/MS/MS. Details: species or system healthy human subjects. The following applies: human, in vivo. As to the method:
The following experiments were undertaken to determine whether citrus polymethoxylated flavones (PMFs) can be detected and quantitated in serum obtained from healthy adults after a single-dose administration of Sytrinol™ capsules (containing 1053 mg of total PMFs) and to compare oral bioavailabilities of two Sytrinol™ formulations in healthy human subjects. This study was conducted as a randomized crossover trial in ten healthy adults, five men and five women, age 23±3 years. […]
Peripheral blood was taken by venipuncture at time 0 (baseline) and times 0.25, 0.5, 1, 2, 4, 6, 8, 24 and 48 hours after ingestion of Sytrinol™ capsules. […] Tangeretin and nobiletin were detected in serum samples and quantitated by LC/MS/MS.
The study was designed to determine whether PMFs can be detected and quantitated in serum obtained from healthy adults after a single dose administration of Sytrinol™ capsules (containing 1053 mg of total PMFs) and to compare oral bioavailabilities of two Sytrinol™ formulations in healthy human subjects. […]
A method of serum extraction and LC/MS/MS analysis of PMF was developed. A Varian 1200 L LC/MS/MS system equipped with ESI and APCI sources was used to identify and quantify tangeretin and nobiletin. […]

We go through one compound from patent publication US7887852B2, “Soft gel capsules containing polymethoxylated flavones and palm oil tocotrienols” (Soft Gel Technologies, Inc., priority 2005, dated 2011).

Regarding `COc1ccc(-c2cc(=O)c3c(OC)c(OC)c(OC)c(OC)c3o2)cc1OC` [nobiletin], the “AUC0-48h of nobiletin compared with tangeretin” value is given as “significantly higher”.
